This is an account of results in ChEMBL document CHEMBL4622888, “Modified Fusicoccane-Type Diterpenoids from Alternaria brassicicola” (J Nat Prod, 2020).

Data set [1] concerns Hep 3B2. The experiment in a line: Cytotoxicity against human Hep3B cells after 48 hrs by MTT assay. Format: functional, cell-based.
The test system of data set [2] is HT-29. The experiment in a line: Cytotoxicity against human HT-29 cells after 48 hrs by MTT assay. Format: functional, cell-based. The note with it: HT-29, 48 h.
Data set [3] deals with RAW264.7. The experiment in a line: Antiinflammatory activity in mouse RAW264.7 cells assessed as inhibition of LPS-induced NO production measured after 18 hrs by Griess assay. Particulars: RAW264.7, 18 h. Format: functional, cell-based.
Data set [4] deals with L02. The experiment in a line: Cytotoxicity against human LO2 cells after 48 hrs by MTT assay. The data set is classed as cell-based. Particulars: l02, 48 h.
For data set [5], the system named is HeLa. Briefly: Cytotoxicity against human HeLa cells after 48 hrs by MTT assay. Format: functional, cell-based.
Data set [6] has as its system MDA-MB-231. The experiment in a line: Cytotoxicity against human MDA-MB-231 cells after 48 hrs by MTT assay. Format: functional, cell-based. The note with it: MDA-MB-231, 48 h.
For data set [7], the system named is OVCAR. The experiment in a line: Cytotoxicity against human OVCAR cells after 48 hrs by MTT assay. The data set is classed as functional, cell-based.

Turning to `COC[C@@]1(O)CC[C@H]2[C@@H](C)[C@@H](O)CC3=C(C(C)C)CC[C@]3(C)[C@H]3O[C@@]231`, the IC50 in data set [1] was 25 to 38.2 µM; in data set [2] it was 25 to 38.2 µM; in data set [3], > 40 µM; in data set [5], 25 to 38.2 µM; in data set [6] it was 25 to 38.2 µM; in data set [7], 25 to 38.2 µM. The Activity result in data set [4] is given as “Non-Toxic”.
Take `CC(C)C1=C2C[C@H](O)[C@H](C)C3=C(C(=O)CC3)[C@H](O)[C@@]2(C)CC1`: the IC50 in data set [3] is > 40 µM.
On to `COCC1=C2C[C@@]3(C)C(=O)C=C(C(C)C)[C@]34C[C@H](O)[C@H](C)[C@@]2(CC1)O4`, for which the IC50 in data set [3] is > 40 µM.
On to `COCC1=C2[C@@H](CC1)[C@@H](C)[C@@H](O)CC1=C(C(C)C)CC[C@]1(C)[C@H]2O`, for which the IC50 is 25 to 38.2 µM in data set [1]; 25 to 38.2 µM in data set [2]; 24.3 µM in data set [3]; 25 to 38.2 µM in data set [5]; 25 to 38.2 µM in data set [6]; 25 to 38.2 µM in data set [7]. Also, the Activity result in data set [4] is given as “Non-Toxic”.
Turning to `CC(C)C1=C2C[C@@H]3O[C@@H]([C@H]4C(=O)CC[C@H]4[C@H]3C)[C@@]2(C)[C@@H](O)C1`, the IC50 was 25 to 38.2 µM in data set [1]; 25 to 38.2 µM in data set [2]; > 40 µM in data set [3]; 25 to 38.2 µM in data set [5]; 25 to 38.2 µM in data set [6]; 25 to 38.2 µM in data set [7]. In addition, the Activity result in data set [4] is given as “Non-Toxic”.
In the case of `CC(C)C1=C2C[C@H](O)[C@H](C)[C@@H]3CCC(=O)/C3=C/[C@@]2(C)[C@@H](O)C1`, the IC50 in data set [1] was 25 to 38.2 µM; in data set [2] it was 25 to 38.2 µM; in data set [3], > 40 µM; in data set [5], 25 to 38.2 µM; in data set [6], 25 to 38.2 µM; in data set [7] it was 25 to 38.2 µM. Further, the Activity result in data set [4] is listed as “Non-Toxic”.
Regarding `COCC1=C2[C@@H](CC1)[C@@H](C)[C@@H](O)CC1=C(C(C)C)C(=O)C[C@]1(C)[C@H]2O`, the IC50 in data set [3] is > 40 µM.
